Results as given in ChEMBL document CHEMBL5696439 (Cancer Res, 2010).
Activity calls are given as the source filed them. The rule behind the calls is not given here.

Legend:
[1] = molecular target: Serine/threonine-protein kinase Nek9 (Homo sapiens) (UniProt Q8TD19); assay: Inhibition of recombinant human GST-tagged NEK9 (347-732 residues) expressed in insect cells at 2 uM using Ser/Thr 07 as substrate measured after 1 hr by Z'-LYTE assay relative to control; conditions: Insect cell
Rat1 = assay: Inhibition of mTORC2 in rat Rat1 cells assessed as reduction in AKT phosphorylation at T308 level at 0.01 to 2 uM incubated for 1 hrs in the presence of IGF-1 stimulation by immunoblot assay; assay type: cell-based; conditions: dose 0.01-2 µM
A498 = assay: Antiproliferative activity against human A498 cells assessed as cell growth inhibition at 10 micromol/L incubated for 3 days by MTS assay relative to control; assay type: functional; conditions: A498, 72 h, dose 10 µmol/L, time 3 day
[2] = molecular target: Proto-oncogene tyrosine-protein kinase ROS (Homo sapiens) (UniProt P08922); assay: Inhibition of recombinant human GST-tagged ROS1 (1883-2347 residues) expressed in insect cells at 2 uM using Tyr 01 as substrate measured after 1 hr by Z'-LYTE assay relative to control; conditions: Insect cell
[3] = molecular target: Mitogen-activated protein kinase kinase kinase kinase 4 (Homo sapiens) (UniProt O95819); assay: Inhibition of recombinant human GST-tagged MAP4K4 (1-328 residues) expressed in insect cells at 2 uM using Ser/Thr 07 as substrate measured after 1 hr by Z'-LYTE assay relative to control; conditions: Insect cell
Mitogen-activated protein kinase kinase kinase kinase 4 (Homo sapiens), sequence (O95819 2-1239 limits assumed): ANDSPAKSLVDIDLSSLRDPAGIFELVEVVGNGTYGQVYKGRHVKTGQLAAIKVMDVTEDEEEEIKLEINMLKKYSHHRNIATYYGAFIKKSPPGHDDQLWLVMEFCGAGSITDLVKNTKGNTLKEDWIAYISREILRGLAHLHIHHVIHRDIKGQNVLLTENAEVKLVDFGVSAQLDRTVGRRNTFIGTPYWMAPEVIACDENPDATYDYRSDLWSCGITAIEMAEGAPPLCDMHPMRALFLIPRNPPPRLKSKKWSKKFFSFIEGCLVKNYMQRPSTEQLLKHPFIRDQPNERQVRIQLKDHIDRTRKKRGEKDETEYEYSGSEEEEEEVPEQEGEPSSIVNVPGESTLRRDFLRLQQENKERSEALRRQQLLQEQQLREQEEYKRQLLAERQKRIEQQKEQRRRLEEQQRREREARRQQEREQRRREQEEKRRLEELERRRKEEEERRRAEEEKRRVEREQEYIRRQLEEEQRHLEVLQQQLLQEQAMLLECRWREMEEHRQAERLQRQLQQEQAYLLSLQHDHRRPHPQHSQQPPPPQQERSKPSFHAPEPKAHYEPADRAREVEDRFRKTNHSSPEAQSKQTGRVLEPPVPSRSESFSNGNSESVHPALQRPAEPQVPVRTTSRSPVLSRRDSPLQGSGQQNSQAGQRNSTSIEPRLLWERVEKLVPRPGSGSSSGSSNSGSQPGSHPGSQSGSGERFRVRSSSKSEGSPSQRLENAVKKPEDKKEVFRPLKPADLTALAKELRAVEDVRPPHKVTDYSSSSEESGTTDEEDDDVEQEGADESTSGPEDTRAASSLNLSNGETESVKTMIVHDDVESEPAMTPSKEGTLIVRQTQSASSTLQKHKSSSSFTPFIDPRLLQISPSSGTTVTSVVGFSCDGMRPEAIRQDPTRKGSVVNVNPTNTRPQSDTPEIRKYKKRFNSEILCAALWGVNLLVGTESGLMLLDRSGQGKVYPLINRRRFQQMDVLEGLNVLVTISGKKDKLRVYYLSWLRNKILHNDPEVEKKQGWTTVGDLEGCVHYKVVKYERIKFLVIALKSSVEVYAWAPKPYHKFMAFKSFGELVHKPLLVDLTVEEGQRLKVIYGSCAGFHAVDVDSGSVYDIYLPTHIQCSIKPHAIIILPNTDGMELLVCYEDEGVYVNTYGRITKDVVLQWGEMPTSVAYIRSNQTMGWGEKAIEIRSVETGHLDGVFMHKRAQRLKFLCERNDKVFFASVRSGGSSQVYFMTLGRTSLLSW

HT-29 = assay: Antitumor activity against human HT-29 cells xenografted in female nude mouse model assessed as suppression in P-AKT at S473 level at 50 mg/kg, iv administered once a week and measured at least 8 hrs by immunoblot analysis; assay type: functional, organism-based
[4] = molecular target: Casein kinase I isoform gamma-2 (Homo sapiens) (UniProt P78368); assay: Inhibition of recombinant human full-length His-tagged CSNK1G2 expressed in baculovirus expression system at 2 uM using Ser/Thr 05 as substrate measured after 1 hr by Z'-LYTE assay relative to control
Casein kinase I isoform gamma-2 (Homo sapiens), sequence (P78368 whole entry, looked up, the tested form may be a part, canonical isoform): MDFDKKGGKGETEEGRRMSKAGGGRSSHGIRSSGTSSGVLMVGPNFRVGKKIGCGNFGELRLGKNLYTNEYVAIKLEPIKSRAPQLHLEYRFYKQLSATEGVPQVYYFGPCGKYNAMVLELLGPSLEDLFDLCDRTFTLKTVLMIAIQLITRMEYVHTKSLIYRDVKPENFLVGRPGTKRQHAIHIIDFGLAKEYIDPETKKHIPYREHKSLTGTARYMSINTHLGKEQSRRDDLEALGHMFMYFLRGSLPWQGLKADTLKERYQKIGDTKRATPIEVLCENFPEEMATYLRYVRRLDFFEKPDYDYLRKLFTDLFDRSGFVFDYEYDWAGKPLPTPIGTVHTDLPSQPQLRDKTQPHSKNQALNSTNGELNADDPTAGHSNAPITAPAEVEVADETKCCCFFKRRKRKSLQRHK

[5] = system: RAF proto-oncogene serine/threonine-protein kinase (Homo sapiens), P04049 [Y340D,Y341D]; assay: Inhibition of recombinant human GST-tagged RAF1 Y340D/Y341D double mutant (306-648 residues) expressed in insect cells at 2 uM using Ser/Thr 03 as substrate measured after 1 hr by Z'-LYTE assay relative to control; conditions: Insect cell
RAF proto-oncogene serine/threonine-protein kinase (Homo sapiens), P04049 [Y340D,Y341D], sequence (P04049 whole entry Y340D/Y341D, the tested form may be a part): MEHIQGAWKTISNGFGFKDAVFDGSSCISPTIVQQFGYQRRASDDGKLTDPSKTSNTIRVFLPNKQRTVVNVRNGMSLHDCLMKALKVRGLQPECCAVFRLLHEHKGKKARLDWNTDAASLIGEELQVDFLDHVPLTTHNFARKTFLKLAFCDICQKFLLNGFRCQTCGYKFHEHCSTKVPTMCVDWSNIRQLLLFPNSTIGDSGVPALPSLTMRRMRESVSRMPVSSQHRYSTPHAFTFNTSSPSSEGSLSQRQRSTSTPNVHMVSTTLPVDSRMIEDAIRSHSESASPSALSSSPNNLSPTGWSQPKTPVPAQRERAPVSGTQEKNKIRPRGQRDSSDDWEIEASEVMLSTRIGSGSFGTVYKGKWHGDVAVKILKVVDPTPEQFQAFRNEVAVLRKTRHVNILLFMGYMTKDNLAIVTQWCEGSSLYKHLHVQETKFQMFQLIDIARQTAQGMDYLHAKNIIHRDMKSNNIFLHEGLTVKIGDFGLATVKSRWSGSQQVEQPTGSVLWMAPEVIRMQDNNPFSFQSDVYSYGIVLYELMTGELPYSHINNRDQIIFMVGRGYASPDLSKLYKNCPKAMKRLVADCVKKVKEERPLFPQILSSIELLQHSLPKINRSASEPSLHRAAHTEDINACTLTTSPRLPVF

[6] = molecular target: Epidermal growth factor receptor (Homo sapiens) (UniProt P00533); assay: Inhibition of recombinant human GST-tagged EGFR (668-1210 residues) expressed in insect cells at 2 uM using Tyr 04 as substrate measured after 1 hr by Z'-LYTE assay relative to control; conditions: Insect cell
A549 [7] = assay: Antitumor activity against human A549 cells xenografted in female nude mouse model assessed as suppression in tumor growth at 10 mg/kg, po qd administered as 5 days on/2 days off regimen for 4 cycles; assay type: functional, organism-based; conditions: time 28.0 day
[8] = molecular target: Platelet-derived growth factor receptor beta (Homo sapiens) (UniProt P09619); assay: Inhibition of recombinant human His-tagged PDGFRB (558-1106 residues) expressed in baculovirus expression system at 2 uM using Tyr 04 as substrate measured after 1 hr by Z'-LYTE assay relative to control
MDA-MB-361 [9] = assay: Induction of apoptosis in HER2 hyperactive human MDA-MB-361 cells assessed as massive cell death at 0.001 to 100 micromol/L incubated for 48 hrs by FACS analysis; assay type: functional, cell-based; conditions: dose 0.001-100 µmol/L
[10] = system: Receptor-type tyrosine-protein kinase FLT3 (Homo sapiens), P36888 [D835Y]; assay: Inhibition of recombinant human His-tagged FLT3 D835Y mutant (564-958 residues) expressed in insect cells at 2 uM using Tyr 02 as substrate measured after 1 hr by Z'-LYTE assay relative to control; conditions: Insect cell
PI3K p110 beta/p85 alpha = PI3K p110 beta/p85 alpha (Homo sapiens, UniProt P42338); assay: Inhibition of p110beta/p85alpha (unknown origin) using PIP2 as substrate measured after 15 to 30 mins by fluorescence polarization assay; assay type: protein-complex assay
MDA-MB-361 [11] = assay: Induction of apoptosis in HER2 hyperactive human MDA-MB-361 cells assessed as cell death at 0.001 to 100 micromol/L incubated for 24 hrs by FACS analysis; assay type: functional, cell-based; conditions: dose 0.001-100 µmol/L
[12] = molecular target: Serine/threonine-protein kinase BRSK1 (Homo sapiens) (UniProt Q8TDC3); assay: Inhibition of recombinant human full-length GST tagged BRSK1 expressed in baculovirus expression system at 2 uM using Ser/Thr 21 as substrate measured after 1 hr by Z'-LYTE assay relative to control
Serine/threonine-protein kinase BRSK1 (Homo sapiens), sequence (Q8TDC3 whole entry): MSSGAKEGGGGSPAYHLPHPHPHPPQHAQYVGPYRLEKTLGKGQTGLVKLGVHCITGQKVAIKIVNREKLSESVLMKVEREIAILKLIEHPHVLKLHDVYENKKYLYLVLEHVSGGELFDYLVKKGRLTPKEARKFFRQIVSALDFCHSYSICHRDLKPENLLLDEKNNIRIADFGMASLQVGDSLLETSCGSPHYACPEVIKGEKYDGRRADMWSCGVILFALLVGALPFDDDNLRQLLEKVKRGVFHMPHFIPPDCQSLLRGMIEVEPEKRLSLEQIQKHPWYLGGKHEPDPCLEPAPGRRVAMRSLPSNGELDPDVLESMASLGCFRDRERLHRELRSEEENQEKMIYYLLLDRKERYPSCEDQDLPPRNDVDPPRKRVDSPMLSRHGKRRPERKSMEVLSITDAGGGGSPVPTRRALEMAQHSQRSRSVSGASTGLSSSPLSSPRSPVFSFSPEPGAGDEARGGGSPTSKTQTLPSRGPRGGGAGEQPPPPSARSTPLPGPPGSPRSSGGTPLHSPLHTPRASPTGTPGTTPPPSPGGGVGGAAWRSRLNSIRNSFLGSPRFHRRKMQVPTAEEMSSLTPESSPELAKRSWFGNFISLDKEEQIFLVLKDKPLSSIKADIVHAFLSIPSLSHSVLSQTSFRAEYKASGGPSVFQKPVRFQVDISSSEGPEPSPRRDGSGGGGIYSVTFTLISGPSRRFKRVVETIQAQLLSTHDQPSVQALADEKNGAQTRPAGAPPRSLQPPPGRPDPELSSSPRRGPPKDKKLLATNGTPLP

[13] = molecular target: G protein-coupled receptor kinase 6 (Homo sapiens) (UniProt P43250); assay: Inhibition of recombinant human full-length GST-tagged GRK6 expressed in insect cells at 2 uM using Ser/Thr 16 as substrate measured after 1 hr by Z'-LYTE assay relative to control; conditions: Insect cell
G protein-coupled receptor kinase 6 (Homo sapiens), sequence (P43250 whole entry, looked up, the tested form may be a part): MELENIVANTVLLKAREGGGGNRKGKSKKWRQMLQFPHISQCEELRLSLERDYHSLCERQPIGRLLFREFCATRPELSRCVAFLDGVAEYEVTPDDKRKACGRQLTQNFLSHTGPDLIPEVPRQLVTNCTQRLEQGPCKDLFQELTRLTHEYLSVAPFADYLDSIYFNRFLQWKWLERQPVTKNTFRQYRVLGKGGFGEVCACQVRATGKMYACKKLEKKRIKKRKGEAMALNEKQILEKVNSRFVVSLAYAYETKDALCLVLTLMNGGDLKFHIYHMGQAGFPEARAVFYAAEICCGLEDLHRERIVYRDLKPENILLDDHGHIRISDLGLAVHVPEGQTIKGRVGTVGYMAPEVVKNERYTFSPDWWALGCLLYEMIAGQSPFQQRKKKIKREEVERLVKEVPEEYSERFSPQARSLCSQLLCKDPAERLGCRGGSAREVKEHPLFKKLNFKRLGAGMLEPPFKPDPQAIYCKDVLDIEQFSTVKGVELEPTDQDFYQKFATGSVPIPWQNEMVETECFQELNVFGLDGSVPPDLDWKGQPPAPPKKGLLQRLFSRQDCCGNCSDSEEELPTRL

[14] = molecular target: Fibroblast growth factor receptor 1 (Homo sapiens) (UniProt P11362); assay: Inhibition of recombinant human His-tagged FGFR1 (308-731 residues) expressed in baculovirus expression system at 2 uM using Tyr 04 as substrate measured after 1 hr by Z'-LYTE assay relative to control
MDA-MB-361 [15] = assay: Induction of apoptosis in human MDA-MB-361 cells assessed as induction in cell death at 3 micromol/L incubated for 48 hrs by FACS analysis relative to control; assay type: functional; conditions: dose 3 µmol/L, at 3 µM
A549 [16] = assay: Antitumor activity against human A549 cells xenografted in female nude mouse model assessed as inhibition in tumor growth at 10 to 50 mg/kg, po qd administered as 5 days on/2 days off regimen for 4 cycles; assay type: functional, organism-based; conditions: dose 10-50 mg/kg, time 28.0 day
[17] = molecular target: Insulin receptor-related protein (Homo sapiens) (UniProt P14616); assay: Inhibition of recombinant human GST-tagged INSRR (944-1297 residues) expressed in insect cells at 2 uM using Tyr 04 as substrate measured after 1 hr by Z'-LYTE assay relative to control; conditions: Insect cell
Insulin receptor-related protein (Homo sapiens), sequence (P14616 27-742 limits assumed): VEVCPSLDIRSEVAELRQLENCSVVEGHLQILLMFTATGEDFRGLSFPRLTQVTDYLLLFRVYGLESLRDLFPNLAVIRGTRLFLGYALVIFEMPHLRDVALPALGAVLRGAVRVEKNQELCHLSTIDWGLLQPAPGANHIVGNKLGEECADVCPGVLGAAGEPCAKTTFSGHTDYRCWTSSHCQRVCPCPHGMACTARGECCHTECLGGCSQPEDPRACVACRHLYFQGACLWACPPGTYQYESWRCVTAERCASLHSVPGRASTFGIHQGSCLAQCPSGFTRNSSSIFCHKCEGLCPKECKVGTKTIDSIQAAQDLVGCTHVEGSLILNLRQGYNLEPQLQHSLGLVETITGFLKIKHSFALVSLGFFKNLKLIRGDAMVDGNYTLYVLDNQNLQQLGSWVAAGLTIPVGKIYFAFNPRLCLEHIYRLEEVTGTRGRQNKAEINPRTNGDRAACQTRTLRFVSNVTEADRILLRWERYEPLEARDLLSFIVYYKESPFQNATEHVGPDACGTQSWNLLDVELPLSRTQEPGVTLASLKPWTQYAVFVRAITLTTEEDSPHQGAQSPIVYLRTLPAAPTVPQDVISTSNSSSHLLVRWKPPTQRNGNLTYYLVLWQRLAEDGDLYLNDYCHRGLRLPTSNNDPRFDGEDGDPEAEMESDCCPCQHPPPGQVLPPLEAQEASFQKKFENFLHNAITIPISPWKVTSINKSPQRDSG
Insulin receptor-related protein (Homo sapiens), sequence (P14616 747-1297 limits assumed): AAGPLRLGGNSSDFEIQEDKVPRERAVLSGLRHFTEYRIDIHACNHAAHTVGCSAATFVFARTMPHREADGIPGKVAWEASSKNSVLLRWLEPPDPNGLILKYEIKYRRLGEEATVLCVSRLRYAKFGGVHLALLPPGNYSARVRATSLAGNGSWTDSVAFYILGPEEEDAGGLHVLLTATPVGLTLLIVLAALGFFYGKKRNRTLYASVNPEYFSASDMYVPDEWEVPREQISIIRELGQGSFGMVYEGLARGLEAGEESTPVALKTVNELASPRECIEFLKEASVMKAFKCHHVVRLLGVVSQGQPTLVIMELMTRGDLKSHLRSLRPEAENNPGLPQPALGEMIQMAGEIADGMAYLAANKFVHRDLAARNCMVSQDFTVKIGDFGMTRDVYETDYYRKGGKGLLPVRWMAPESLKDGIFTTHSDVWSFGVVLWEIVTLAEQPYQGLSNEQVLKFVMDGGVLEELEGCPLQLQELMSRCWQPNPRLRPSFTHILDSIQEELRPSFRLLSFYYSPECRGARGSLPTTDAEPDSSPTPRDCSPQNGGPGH

[18] = molecular target: Tyrosine-protein kinase JAK2 (Homo sapiens) (UniProt O60674); assay: Inhibition of recombinant human GST-tagged JAK2 JH1 JH2 domains (532-1132 residues) expressed in insect cells at 2 uM using Tyr 06 as substrate measured after 1 hr by Z'-LYTE assay relative to control; conditions: Insect cell
PC3MM2 = assay: Antitumor activity against human PC3MM2 cells xenografted in female nude mouse model assessed as suppression in P-AKT at S473 level at 50 mg/kg, iv administered once a week and measured at least 8 hrs by immunoblot analysis; assay type: functional, organism-based
[19] = molecular target: Inhibitor of nuclear factor kappa-B kinase subunit beta (Homo sapiens) (UniProt O14920); assay: Inhibition of recombinant human full-length GST-tagged IKBKB expressed in insect cells at 2 uM using Ser/Thr 05 as substrate measured after 1 hr by Z'-LYTE assay relative to control; conditions: Insect cell
786-0 = assay: Antiproliferative activity against human 786-0 cells assessed as cell growth inhibition incubated for 24 hrs by MTS assay; assay type: functional, cell-based; conditions: 786-0, 24 h

## CNC(=O)Nc1ccc(-c2nc(N3CC4CCC(C3)O4)c3cnn(C4CCC5(CC4)OCCO5)c3n2)cc1
[1]
  inhibition: -2%
Rat1
  inhibition: inactive
A498
  inhibition at 10 µM: 100%
[2]
  inhibition: 2%
[3]
  inhibition: 10%
HT-29
  Activity: Active
[4]
  inhibition: -6%
[5]
  inhibition: 12%
[6]
  inhibition: 1%
A549 [7]
  Activity: Active
[8]
  inhibition: 2%
MDA-MB-361 [9]
  Activity: Active
[10]
  inhibition: 7%
PI3K p110 beta/p85 alpha
  IC50: > 10000 nM
MDA-MB-361 [11]
  Activity: Active
[12]
  inhibition: 1%
[13]
  inhibition: -1%
[14]
  inhibition: 4%
MDA-MB-361 [15]
  Activity: 59%
A549 [16]
  inhibition: Dose-Dependent Effect
[17]
  inhibition: 6%
[18]
  inhibition: 2%
PC3MM2
  Activity: Active
[19]
  inhibition: -5%
786-0
  IC50: 120 nM
